Results on 20 compounds are retold here after patent US10584116B2, “Heterocyclic sulfonamide derivative and medicine containing same” (EA Pharma Co., Ltd., priority 2016, dated 2020).

Usually IC50 stands for the midpoint of a concentration-inhibition curve.

human TRPA1, sequence (O75762 whole entry): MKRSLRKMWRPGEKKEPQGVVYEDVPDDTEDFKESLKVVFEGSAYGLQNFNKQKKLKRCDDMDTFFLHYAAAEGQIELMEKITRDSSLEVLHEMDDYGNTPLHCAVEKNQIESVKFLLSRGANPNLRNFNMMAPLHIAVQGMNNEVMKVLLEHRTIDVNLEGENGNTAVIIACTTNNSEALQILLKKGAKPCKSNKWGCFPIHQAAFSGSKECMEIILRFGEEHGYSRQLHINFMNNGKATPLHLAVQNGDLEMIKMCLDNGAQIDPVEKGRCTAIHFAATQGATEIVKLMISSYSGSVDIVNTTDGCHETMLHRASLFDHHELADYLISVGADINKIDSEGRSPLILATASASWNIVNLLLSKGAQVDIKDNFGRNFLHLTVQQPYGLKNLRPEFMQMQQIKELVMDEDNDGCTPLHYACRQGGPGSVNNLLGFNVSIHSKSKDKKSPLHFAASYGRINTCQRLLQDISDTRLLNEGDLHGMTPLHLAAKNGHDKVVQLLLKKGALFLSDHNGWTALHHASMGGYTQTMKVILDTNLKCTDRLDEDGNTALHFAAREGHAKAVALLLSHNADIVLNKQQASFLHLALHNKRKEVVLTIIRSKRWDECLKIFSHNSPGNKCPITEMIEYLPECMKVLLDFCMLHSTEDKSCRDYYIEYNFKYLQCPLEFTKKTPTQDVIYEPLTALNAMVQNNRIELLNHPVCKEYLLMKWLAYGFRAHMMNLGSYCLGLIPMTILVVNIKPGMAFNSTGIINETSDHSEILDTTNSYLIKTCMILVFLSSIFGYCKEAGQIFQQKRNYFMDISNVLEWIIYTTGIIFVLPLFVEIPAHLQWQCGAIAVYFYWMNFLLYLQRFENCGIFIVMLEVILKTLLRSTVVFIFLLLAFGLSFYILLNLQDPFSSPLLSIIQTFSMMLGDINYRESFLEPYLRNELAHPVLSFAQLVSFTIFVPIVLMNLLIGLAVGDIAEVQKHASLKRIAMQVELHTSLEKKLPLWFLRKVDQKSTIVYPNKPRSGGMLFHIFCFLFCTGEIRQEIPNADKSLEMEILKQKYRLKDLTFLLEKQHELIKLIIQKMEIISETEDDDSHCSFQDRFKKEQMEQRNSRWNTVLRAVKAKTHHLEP

For the assay, the target named is human TRPA1 (Homo sapiens (Human), UniProt O75762). In words: Measurement of TRPA1 antagonist activity (intracellular calcium increase induced by allylisothiocyanate in 293T cells transfected with human TRPA1). In kind it is cell-based. The following applies: 293T cells expressing human TRPA1, allylisothiocyanate stimulation, FLIPR Calcium4 fluorescence; read-out: hTRPA1 IC50. The method, then:
Measurement of TRPA1 Antagonist Activity
Human TRPA1 Expression Plasmid
Using cDNA encoding human TRPA1 (GenBank accession No. NM_007332) (manufactured by Kazusa DNA Research Institute, item No. FHC07217) as a template, primer 1 (SEQ ID NO: 1) and primer 2 (SEQ ID NO: 2), PCR by PfuUltra High-Fidelity DNA Polymerase (Stratagene) was performed, and full-length human TRPA1 gene was amplified.
A recognition site (underlined) of restriction enzyme HindIII was added to the 5′ end of human TRPA1 gene, and XbaI site (underlined) was added to the 3′ end of human TRPA1 gene, and GTT of the template sequence was changed to termination codon TAG (bold). The obtained double stranded DNA was enzyme-digested with HindIII and XbaI, and introduced into a multicloning site of expression plasmid pcDNA3.1/zeo(+) (manufactured by Invitrogen) to give a human TRPA1 expression plasmid.
Human embryonic kidney-derived 293T cells were cultured in Dulbecco's Modified Eagle Medium containing 10% fetal bovine serum, 10 unit penicillin, and 10 μg streptomycin. One day before assay, 3×10^6 of 293T cells were plated on a petri dish having a diameter of 10 cm, and cultured in a CO2 incubator for 24 hr. OPTI-MEM I Reduced Serum Media (Invitrogen) (600 μL), Mirus TransIT-293 (Mirus Bio) (18 μL), and human TRPA1 expression plasmid (6 μg) were mixed, the total amount of the mixture was added to the cells on the petri dish to allow for gene transfer. The cells were recovered about for 8 hr later, plated on a poly-D-lysine coated 384 well black/clear bottom plate at 12,000 cells/well, and cultured overnight.
Measurement of Intracellular Calcium Increase
The medium was removed from the 384 well plate, calcium indicator (Molecular Device, trade name: FLIPR Calcium4 Assay Kit) dissolved in HBSS (Thermo Fisher Scientific) (pH 7.2) containing 20 mM HEPES was added (38 μL/well), and the cells were stained in a CO2 incubator for 1 hr. The 384 well plate was stood at room temperature for not less than 15 min, set on FDSS7000 (Hamamatsu Photonics K.K.), and a test substance solution was added at 10 μL/well. After 10 min, allylisothiocyanate solution (12 μL/well) was added, the relative fluorescence intensity was measured for 5 min after addition of the allylisothiocyanate solution.
Test Substance Preparation
Preparation of Test Substance Solution and Allylisothiocyanate Solution
A test substance solution was prepared to have a composition of HBSS (Thermo Fisher Scientific) (pH 7.2) containing 0.48% dimethyl sulfoxide, a test substance at 4.8-fold concentration of the evaluation concentration, 0.1% bovine serum albumin and 20 mM HEPES. An allylisothiocyanate solution was prepared to have a composition of HBSS (Thermo Fisher Scientific) (pH 7.2) containing 0.1% dimethyl sulfoxide, 100 μM allylisothiocyanate, 0.1% bovine serum albumin and 20 mM HEPES.
Calculation of Antagonist Activity
The activity rate of a test substance at each concentration was calculated, wherein the relative fluorescence intensity change of a well free of a test substance and containing allylisothiocyanate is 100% activity rate, and the relative fluorescence intensity change of a well free of a test substance and allylisothiocyanate is 0% activity rate. The inhibitory rate of a test substance at each concentration was calculated by subtracting the activity rate of the test substance from 100% activity rate, and the concentration of a test substance showing 50% inhibitory rate was calculated as IC50 from the sigmoid approximate curve by XLfit (idbs).
As to `CC(C)n1cc(CNC(=O)[C@@H]2[C@@H](O)CCN2S(=O)(=O)c2cc3cc(F)ccc3o2)cc(-c2ccc(C(F)(F)F)cc2)c1=O` [Example 47, (2S,3S)-1-(5-fluorobenzofuran-2-yl)sulfonyl-3-hydroxy-N-[[1-isopropyl-6-oxo-5-[4-(trifluoromethyl)phenyl]-3-pyridyl]methyl]pyrrolidine-2-carboxamide], the IC50 turned out to be 0.23 µM.

For the compound `CC(C)n1c(=O)c(CNC(=O)[C@@H]2CCCN2S(=O)(=O)c2cc3ccccc3s2)cn(-c2ccc(C(F)(F)F)cc2)c1=O` [Example 19, (2S)-1-(benzothiophen-2-ylsulfonyl)-N-[[3-isopropyl-2,4-dioxo-1-[4-(trifluoromethyl)phenyl]-pyrimidin-5-yl]methyl]pyrrolidine-2-carboxamide], the IC50 was determined as 0.056 µM.

As to `CC(C)n1c(=O)c(CNC(=O)[C@@H]2CCCN2S(=O)(=O)c2cc3cc(F)ccc3o2)cn(-c2ccc(C(F)(F)F)nc2)c1=O` [Example 30, (2S)-1-(5-fluorobenzofuran-2-yl)sulfonyl-N-[[3-isopropyl-2,4-dioxo-1-[6-(trifluoromethyl)-3-pyridyl]pyrimidin-5-yl]methyl]pyrrolidine-2-carboxamide], the IC50 was 0.01 µM. For the compound `CC(C)n1c(=O)c(CNC(=O)[C@@H]2CCN2S(=O)(=O)c2cc3cc(F)ccc3o2)cn(-c2ccc(C(F)(F)F)cc2)c1=O` [Example 18, (2S)-1-(5-fluorobenzofuran-2-yl)sulfonyl-N-[[3-isopropyl-2,4-dioxo-1-[4-(trifluoromethyl)phenyl]-pyrimidin-5-yl]methyl]azetidine-2-carboxamide], the IC50 came out at 0.009 µM. In the case of `CC(C)n1c(=O)c(CNC(=O)[C@@H]2CC(F)(F)CN2S(=O)(=O)c2cc3cc(F)ccc3o2)cn(-c2ccc(C(F)(F)F)cc2)c1=O` [Example 17, (2S)-4,4-difluoro-1-(5-fluorobenzofuran-2-yl)sulfonyl-N-[[3-isopropyl-2,4-dioxo-1-[4-(trifluoromethyl)phenyl]pyrimidin-5-yl]methyl]pyrrolidine-2-carboxamide] it was 0.046 µM; in that of `O=C(NCc1cn(-c2ccc(C(F)(F)F)cc2)c(=O)n(C2CCOCC2)c1=O)[C@@H]1CCCN1S(=O)(=O)c1cc2ccccc2o1` [Example 9, (2S)-1-(benzofuran-2-ylsulfonyl)-N-[[2,4-dioxo-3-tetrahydropyran-4-yl-1-[4-(trifluoromethyl)phenyl]-pyrimidin-5-yl]methyl]pyrrolidine-2-carboxamide], 0.14 µM. With `CC(C)n1c(=O)c(CNC(=O)[C@@H]2CCCN2S(=O)(=O)c2cc3cc(F)ccc3o2)cn(-c2ccc(C(F)(F)F)cn2)c1=O` [Example 34, (2S)-1-(5-fluorobenzofuran-2-yl)sulfonyl-N-[[3-isopropyl-2,4-dioxo-1-[5-(trifluoromethyl)-2-pyridyl]pyrimidin-5-yl]methyl]pyrrolidine-2-carboxamide] the figure was 0.018 µM. Turning to `CCn1c(=O)c(CNC(=O)[C@@H]2CCCN2S(=O)(=O)c2cc3cc(F)ccc3o2)cn(-c2ccc(C(F)(F)F)cc2)c1=O` [Example 4, (2S)-1-(5-fluorobenzofuran-2-yl)sulfonyl-N-[[3-ethyl-2,4-dioxo-1-[4-(trifluoromethyl)phenyl]pyrimidin-5-yl]methyl]pyrrolidine-2-carboxamide], the IC50 stood at 0.011 µM.

Consider `CC(C)n1c(=O)c(CNC(=O)[C@@H]2[C@@H](O)CCN2S(=O)(=O)c2cc3ccccc3o2)cn(-c2ccc(C(F)(F)F)cc2)c1=O` [Example 7, (2S,3S)-1-(benzofuran-2-ylsulfonyl)-3-hydroxy-N-[[3-isopropyl-2,4-dioxo-1-[4-(trifluoromethyl)phenyl]-pyrimidin-5-yl]methyl]pyrrolidine-2-carboxamide], for which the IC50 worked out at 0.22 µM. As to `CC(C)n1c(=O)c(CNC(=O)[C@@H]2CCCN2S(=O)(=O)c2cc3c(F)cccc3o2)cn(-c2ccc(C(F)(F)F)cc2)c1=O` [Example 10, (2S)-1-(4-fluorobenzofuran-2-yl)sulfonyl-N-[[3-isopropyl-2,4-dioxo-1-[4-(trifluoromethyl)phenyl]-pyrimidin-5-yl]methyl]pyrrolidine-2-carboxamide], the IC50 came out at 0.025 µM.

Consider `CC(C)n1cc(CNC(=O)[C@@H]2CCCN2S(=O)(=O)c2cc3ccccc3o2)cc(-c2ccc(C(F)(F)F)cc2)c1=O` [Example 13, (2S)-1-(benzofuran-2-ylsulfonyl)-N-[[1-isopropyl-6-oxo-5-[4-(trifluoromethyl)phenyl]-3-pyridyl]methyl]pyrrolidine-2-carboxamide], for which the IC50 came out at 0.027 µM. `CC(C)n1cc(-c2ccc(C(F)(F)F)cn2)cc(CNC(=O)[C@@H]2CCCN2S(=O)(=O)c2cc3cc(F)ccc3o2)c1=O` [Example 43, (2S)-1-(5-fluorobenzofuran-2-yl)sulfonyl-N-[[1-isopropyl-2-oxo-5-[5-(trifluoromethyl)-2-pyridyl]-3-pyridyl]methyl]pyrrolidine-2-carboxamide]: the IC50 was found to be 0.023 µM. For `CC(C)n1cc(-c2ccc(C(F)(F)F)cc2)cc(CNC(=O)[C@@H]2CCCN2S(=O)(=O)c2cc3cnccc3o2)c1=O` [Example 27, (2S)-1-fro[3,2-c]pyridin-2-ylsulfonyl-N-[[1-isopropyl-2-oxo-5-[4-(trifluoromethyl)phenyl]-3-pyridyl]methyl]pyrrolidine-2-carboxamide], the IC50 came out at 0.093 µM. `CC(C)n1c(=O)c(CNC(=O)[C@@H]2CCCN2S(=O)(=O)c2cc3ccccc3o2)cn(-c2ccc(F)cc2)c1=O` [Example 38, (2S)-1-(benzofuran-2-ylsulfonyl)-N-[[1-(4-fluorophenyl)-3-isopropyl-2,4-dioxo-pyrimidin-5-yl]methyl]pyrrolidine-2-carboxamide]: the IC50 came to 0.24 µM. In the case of `CC(C)n1cc(-c2ccc(C(F)(F)F)cc2)cc(CNC(=O)[C@@H]2CCCN2S(=O)(=O)c2cc3c(F)cccc3o2)c1=O` [Example 44, (2S)-1-(4-fluorobenzofuran-2-yl)sulfonyl-N-[[1-isopropyl-2-oxo-5-[4-(trifluoromethyl)phenyl]-3-pyridyl]methyl]pyrrolidine-2-carboxamide] it was 0.44 µM; in that of `C[C@H](NS(=O)(=O)c1cc2cc(F)ccc2o1)C(=O)NCc1cn(-c2ccc(C(F)(F)F)cc2)c(=O)n(C)c1=O` [Example 6, (2S)-2-[(5-fluorobenzofuran-2-yl)sulfonylamino]-N-[[3-methyl-2,4-dioxo-1-[4-(trifluoromethyl)phenyl]-pyrimidin-5-yl]methyl]propanamide], 0.54 µM; in that of `CC(C)n1c(=O)c(CNC(=O)[C@@H]2C=CCN2S(=O)(=O)c2cc3cc(F)ccc3o2)cn(-c2ccc(C(F)(F)F)cc2)c1=O` [Example 16, (2S)-1-(5-fluorobenzofuran-2-yl)sulfonyl-N-[[3-isopropyl-2,4-dioxo-1-[4-(trifluoromethyl)phenyl]-pyrimidin-5-yl]methyl]-2,5-dihydropyrrole-2-carboxamide], 0.0036 µM. In the case of `CC(C)n1c(=O)c(CNC(=O)[C@H](C)NS(=O)(=O)c2cc3cc(F)ccc3o2)cn(-c2ccc(C(F)(F)F)cc2)c1=O` [Example 24] it was 0.042 µM; in that of `CC(C)n1c(=O)c(CNC(=O)[C@@H]2CCCN2S(=O)(=O)c2cc3cnccc3o2)cn(-c2ccc(C(F)(F)F)nc2)c1=O` [Example 32, (2S)-1-fro[3,2-c]pyridin-2-ylsulfonyl-N-[[3-isopropyl-2,4-dioxo-1-[6-(trifluoromethyl)-3-pyridyl]pyrimidin-5-yl]methyl]pyrrolidine-2-carboxamide], 0.57 µM; in that of `CC(C)n1cc(CNC(=O)[C@@H]2CCCN2S(=O)(=O)c2cc3ccccc3o2)cc(-c2ccc(C(F)(F)F)nc2)c1=O` [Example 48, (2S)-1-(benzofuran-2-ylsulfonyl)-N-[[1-isopropyl-6-oxo-5-[6-(trifluoromethyl)-3-pyridyl]-3-pyridyl]methyl]pyrrolidine-2-carboxamide], 0.21 µM.
